For two compounds, IC50 results are on record in patent US20220193310A1, “DUAL AGENT NANOPARTICLE COMPOSITION FOR COATING MEDICAL DEVICES” (THE CLEVELAND CLINIC FOUNDATION, priority 2020, published 2022).

Molecules are shown by their SMILES. In brackets after ≈: the same amount, converted by molar mass.

This experiment concerns primary human vascular smooth muscle cells. Briefly: Inhibition of cell proliferation, CyQUANT NF Cell Proliferation Assay. The note with it: drug in solution, FIG. 11A, read-out: IC50, dose required to achieve 50% inhibition of cell proliferation. It is filed as cell-based.

Description: Cell viability was determined using CyQUANT™ NF Cell Proliferation Assay kit (Cat #C35006, ThermoFisher Scientific). Fluorescent readings were taken by a microplate reader (Cytation 5, BioTek Instruments Inc., Vermont). […] A) Dose-response effect following treatment of cells with Paclitaxel (PTX) or Sirolimus (SRL) in solution. From the dose-response study, IC50 for each drug was determined. IC50 is the dose that is required to achieve 50% inhibition of cell proliferation with respect to untreated cell.
Determination of Synergistic Effect of Combination Paclitaxel and Sirolimus: The synergistic effect of the combination treatment was determined in vitro using human vascular smooth muscle cells. The IC50 i.e., the drug amount required to inhibit cell proliferation by 50% with respect to the untreated cells was determined using cell viability assay. Drug combination index (CI) was used to determine if the combination treatment is synergistic (CI=<1), additive (CI=1) or antagonistic (CI>1).
Method: Primary human vascular smooth muscle cells (VSMCs) were incubated with different doses of the encapsulated drug(s) for six days. Cell viability was determined using CyQUANT™ NF Cell Proliferation Assay kit (Cat #C35006, ThermoFisher Scientific). Fluorescent readings were taken by a microplate reader (Cytation 5, BioTek Instruments Inc., Vermont).

Regarding `CC(=O)O[C@H]1C(=O)[C@@]2(C)[C@H]([C@H](OC(=O)c3ccccc3)[C@]3(O)C[C@H](OC(=O)[C@H](O)[C@@H](NC(=O)c4ccccc4)c4ccccc4)C(C)=C1C3(C)C)[C@]1(OC(C)=O)CO[C@@H]1C[C@@H]2O` [PTX, Paclitaxel], the IC50 worked out at 1.16 µg/mL (≈ 1.35 µM).

Consider `CO[C@H]1C[C@@H]2CC[C@@H](C)[C@@](O)(O2)C(=O)C(=O)N2CCCC[C@H]2C(=O)O[C@H]([C@H](C)C[C@@H]2CC[C@@H](O)[C@H](OC)C2)CC(=O)[C@H](C)/C=C(\C)[C@@H](O)[C@@H](OC)C(=O)[C@H](C)C[C@H](C)/C=C/C=C/C=C/1C` [SRL, Sirolimus], for which the IC50 came to 29.1 µg/mL (≈ 31.8 µM).
